This passage reports tumor growth and IC50 results from patent US20200246284A1 (Academia Sinica, priority 2015, published 2020).

Some results are limits rather than exact numbers.

In series [1] the test system is primary patient Ewing's sarcoma xenograft in NSG mice. Nature of the series: Cyclophosphamide-resistant primary Ewing's sarcoma xenograft. In kind it is in vivo, mouse. Conditions: cyclophosphamide 70 mg/kg i.p. x3, then BO-1055 30 mg/kg iv x4.
For the next series, the system named is CV1 renal fibroblasts. The series can be described thus: Cytotoxicity normal tissue 72 hr. The series is classed as cell-based, African green monkey (Cercopithecus aethiops). Conditions: Chlorocebus sabaeus, Fibroblast; CV1 primate, 72 hr; read-out: IC50.
A further series has as its system MS-5 adult BM stroma. Nature of the series: Cytotoxicity normal tissue 72 hr. The series is classed as cell-based, mouse. The conditions noted are these: MS-5 (mouse), 72 hr; listed as TMZ; read-out: IC50.
Series [2] relates to Rhabdomyosarcoma cell lines. The series can be described thus: Cytotoxicity, sarcoma panel (Table 30). The series is classed as cell-based. The conditions noted are these: Homo sapiens, 5/6 rhabdomyosarcoma lines.
Series [3] deals with normal human, murine or primate cell and tissue types. Nature of the series: Cytotoxicity, panel of normal tissues (MTT, alamar blue). The series is classed as cell-based. Conditions: 5 highly drug resistant normal tissues. (The colour change of resazurin is a common sign of viable cells or microbes.)
A further series relates to A204 rhabdomyosarcoma. Nature of the series: Cytotoxicity sarcoma. The conditions noted are these: read-out: cytotoxic activity (IC50), A204 (rhabdoid?).
A further series deals with JEKO-1. Nature of the series: Cytotoxicity mantle cell lymphoma.
The next series has as its system FBMC fetal BM stroma. Nature of the series: Cytotoxicity normal tissue 72 hr. The series is classed as cell-based. Conditions: Homo sapiens.

Experimental for A204 rhabdomyosarcoma: (§1) After 72 hours, the cultures were pulsed with Alamar Blue overnight, and the fluorescent intensity of resulted cultures was measured by a Synergy H1 plate-reader (BioTek Inc).
Experimental for JEKO-1: as §1

Take `O=P1(N(CCCl)CCCl)NCCCO1` (centres unmarked) [cyclophosphamide]: the tumor growth entry in series [1] is “Tumor growth was not inhibited”.

Broadly, the IC50 is the concentration needed to halve the response being measured. On to `Cn1nnc2c(C(N)=O)ncn2c1=O` [Temozolomide], for which the concentration for half-maximal inhibition (IC50) in the series on CV1 renal fibroblasts was more than 100 µM; in the series with MS-5 adult BM stroma it was 5.59 µM; in series [2], not below 191 µM; in series [3], not below 20 µM; with A204 rhabdomyosarcoma it was 569 µM.

On to `N[C@@H](Cc1ccc(N(CCCl)CCCl)cc1)C(=O)O` [Melphalan], for which the values for the IC50 with JEKO-1 and with FBMC fetal BM stroma were 1.1 µM and more than 10 µM, respectively.
